Test [1] concerns Pseudomonas aeruginosa 799/61. Briefly: Antibiotic activity in vitro, agar dilution method in DST agar (MIC). It is filed as cell-based. The note with it: for MIC: Pseudomonas aeruginosa, 799/61. From the text:
(§1) A. Die antibiotische Aktivität der Testverbindungen in vitro wurde durch die Agarverdünnungsmethode nach Ericsson, H.M., und Sherris, S.C., 1971, Acta Path. Microb. Scand. Section B, Suppl. No. 217, Bd. 1-90, in DST Agar ermittelt. Die gefundenen, das Wachstum der Testorganismen noch hemmenden Minimalkonzentrationen (MIC = minimum inhibiting concentrations) werden in Mikrogramm pro Milliliter […] für die geprüften Verbindungen in der Tabelle 1 angegeben.

The test system of test [2] is Escherichia coli 205. The description is as above. It is filed as cell-based. The settings on record: for MIC: Escherichia coli, 205.
Text: as §1

Test [3] relates to Klebsiella pneumoniae 327. Described as above. The class given is cell-based. The note with it: for MIC: Klebsiella pneumoniae, 327.
Text: as §1

Test [4] relates to Salmonella typhimurium 277. Described as above. The class given is cell-based. The settings on record: for MIC: Salmonella enterica, TYPHIMURIUM
Text: as §1

Test [5] concerns Escherichia coli 205. Briefly: Chemotherapeutic efficacy in vivo against systemic infection in mice (ED50). The note with it: s.c., female SPF MF2 mice; for ED50: Escherichia coli, 205, sc. From the text:
(§2) B. Die chemotherapeutische Wirksamkeit in vivo gegen systemische Infektionen in weiblichen SPF, MF2 Mäusen wurde nach der Methode von Zak., 0., et al., 1979, Drugs Exptl. Clin. Res. 5, 45-59, ermittelt. Die gefundenen ED50-Werte in Milligramm Substanz pro Kilogramm Maus (mg/kg) für eine Anzahl von Mikroorganismen werden für die oral (p.o.) oder subcutan (s.c.) applizierten Testverbindungen in der Tabelle 2 angegeben.

In another test the test system is Proteus morganii 2359. The description is as above. The note with it: s.c., female SPF MF2 mice; for ED50: Morganella morganii, 2359, sc.
Text: as §2

Test [6] has as its system Staphylococcus anvens 10B. The description is as above. The note with it: female SPF MF2 mice; for ED50: Staphylococcus, 10B, sc.
Text: as §2

The source of these data is EP0059683A2, “7-Acylamido-3-cephem-4-carboxylic acids, process for their preparation, pharmaceutical compositions containing them and their use” (CIBA-GEIGY AG, priority 1981, dated 1982).

≈ marks a conversion by molar mass, not a printed value.

What is called MIC is the lowest concentration found to suppress growth. Low values mean greater potency, high ones weaker potency. The ED50 is the dose at which the effect has come halfway, by size or by number of responders. The low end stands for greater potency, the high end for weaker potency.

With `NC(=O)c1cc[n+](CC2=C(C(=O)[O-])N3C(=O)C(NC(=O)C(NC(=O)OC[C@@H](N)C(=O)O)c4csc(N)n4)C3SC2)cc1` (stereo partly drawn) [Testverbindung 26, 3-(4-Carbamoylpyridiniomethyl)-7β-[(2R,S)-2-((2R)-2-amino-2-car-boxyäthoxycarbonylamino)-2-(2-aminothiazol-4-yl)-acetamido]-3-cephem-4-carboxylat], in test [1], the “MIC Pseudomonas aeruginosa 799/61” value is recorded as 0,5 µg/ml. Further, in the test on Escherichia coli 205 [2], the “MIC Escherichia coli 205” value is 0,1 µg/ml. Further, the “MIC Klebsiella pneumoniae 327” value in test [3] is 0,1 µg/ml. Also, in test [4], the “MIC Salmonella typhimurium 277” value is listed as 0,1 µg/ml. Further, the “ED50 Escherichia coli 205” value in the test with Escherichia coli 205 [5] was found to be 1 mg/kg. In addition, the “ED50 Proteus morganii 2359” value with Proteus morganii 2359 is 70 mg/kg. The “ED50 Staphylococcus anvens 10B” value in test [6] (s.c.) is listed as >30 mg/kg.
On to `NC(=O)c1cc[n+](CC2=C(C(=O)[O-])N3C(=O)[C@@H](NC(=O)C(NC(=O)OC[C@@H](N)C(=O)O)c4csc(N)n4)[C@H]3SC2)cc1` (stereo partly drawn) [Testverbindung 26], for which the MIC in test [1] is 0.5 µg/mL (≈ 0.806 µM); in the test on Escherichia coli 205 [2], 0.2 µg/mL (≈ 0.322 µM); in test [3], 0.5 µg/mL (≈ 0.806 µM); in test [4], 0.2 µg/mL (≈ 0.322 µM). Further, the ED50 with Escherichia coli 205 [5] came out at 9 mg/kg; in the test with Proteus morganii 2359 it was 10 mg/kg; in test [6], 15 mg/kg.
For `CO[C@@]1(NC(=O)CCCNC(=O)OC[C@@H](N)C(=O)O)C(=O)N2C(C(=O)O)=C(COC(C)=O)CS[C@@H]21` [Testverbindung 27], the MIC was found to be 0.5 µg/mL (≈ 0.964 µM) in test [1], 1 µg/mL (≈ 1.93 µM) against Escherichia coli 205 [2], 1 µg/mL (≈ 1.93 µM) in test [3] and 1 µg/mL (≈ 1.93 µM) in test [4]. Further, the ED50 in the test with Escherichia coli 205 [5] is 14 mg/kg; in the test with Proteus morganii 2359 it was 8 mg/kg; in test [6], > 30 mg/kg.
Consider `CO[C@@]1(NC(=O)CCCNC(=O)OC[C@@H](N)C(=O)O)C(=O)N2C(C(=O)O)=C(CSc3nnnn3C)CS[C@@H]21` [Testverbindung 28], for which the MIC stood at 0.2 µg/mL (≈ 0.348 µM) in test [1], 1 µg/mL (≈ 1.74 µM) with Escherichia coli 205 [2], 0.5 µg/mL (≈ 0.87 µM) in test [3] and 0.5 µg/mL (≈ 0.87 µM) in test [4]. Also, the ED50 in the test on Escherichia coli 205 [5] was 4 mg/kg; in the test with Proteus morganii 2359, 5 mg/kg; in test [6], > 30 mg/kg.
As to `CC(=O)OCC1=C(C(=O)O)N2C(=O)[C@@H](NC(=O)CCCNC(=O)OC[C@@H](N)C(=O)O)[C@H]2SC1` [Testverbindung 29], the MIC was determined as 1 µg/mL (≈ 2.05 µM) in test [1], 32 µg/mL (≈ 65.5 µM) in the test on Escherichia coli 205 [2], 4 µg/mL (≈ 8.19 µM) in test [3] and 2 µg/mL (≈ 4.09 µM) in test [4]. Further, the ED50 with Escherichia coli 205 [5] is 7 mg/kg; in the test on Proteus morganii 2359 it was 75 mg/kg; in test [6] it was > 30 mg/kg.
As to `Cn1nnnc1SCC1=C(C(=O)O)N2C(=O)[C@@H](NC(=O)CCCNC(=O)OC[C@@H](N)C(=O)O)[C@H]2SC1` [Testverbindung 30], the MIC in test [1] was 0.5 µg/mL (≈ 0.918 µM); against Escherichia coli 205 [2], 2 µg/mL (≈ 3.67 µM); in test [3] it was 0.5 µg/mL (≈ 0.918 µM); in test [4], 0.5 µg/mL (≈ 0.918 µM). For the same molecule, the ED50 in the test on Escherichia coli 205 [5] was 1.7 mg/kg; in the test on Proteus morganii 2359 it was 10 mg/kg; in test [6] it was > 30 mg/kg.
